Assay results from US9499492B2, “4-(ortho)-fluorophenyl-5-fluoropyrimidin-2-yl amines containing a sulfoximine group” (BAYER PHARMA AKTIENGESELLSCHAFT, priority 2012, dated 2016).
Where two headings read alike, the source gives them in different places.

How the values were obtained:
CDK2/CycE = CDK2/CycE (Homo sapiens (Human), UniProt P24941); experiment: CDK2/CycE kinase assay (Method 2); format: biochemical; conditions: 10 μM ATP
[1] = target: human carbonic anhydrase-2 (Homo sapiens (Human), UniProt P00918); experiment: Carbonic anhydrase assay, carbonic anhydrase-2 (Method 4); format: biochemical; conditions: read-out: Inhibition of Carbonic anhydrase-2 IC50
Method: (§1) 4. Carbonic Anhydrase Assay
The principle of the assay is based on the hydrolysis of 4-nitrophenyl acetate by carbonic anhydrases (Pocker & Stone, Biochemistry, 1967, 6, 668), with subsequent photometric determination of the dye product 4-nitrophenolate at 400 nm by means of a 96-channel spectral photometer.
(§2) 2 μL of the test compounds, dissolved in DMSO (100-fold final concentration), in a concentration range of 0.03-10 μmol/L (final), was pipetted as quadruplicates into the wells of a 96-hole microtiter plate. Wells that contained the solvent without test compounds were used as reference values (1. Wells without carbonic anhydrase for correction of the non-enzymatic hydrolysis of the substrate, and 2. Wells with carbonic anhydrase for determining the activity of the non-inhibited enzyme).
(§3) 188 μL of assay buffer (10 mmol/L of Tris/HCl, pH 7.4, 80 mmol/L of NaCl), with or without 3 units/well of carbonic anhydrase-1 [=human carbonic anhydrase-1 (Sigma, #C4396)] in order to determine carbonic anhydrase-1 inhibition or 3 units/well of carbonic anhydrase-2 [=human carbonic anhydrase-2 (Sigma, #C6165)] for measuring carbonic anhydrase-2 inhibition, was pipetted into the wells of the microtiter plate.

[2] = target: human carbonic anhydrase-1 (Homo sapiens (Human), UniProt P00915); experiment: Carbonic anhydrase assay, carbonic anhydrase-1 (Method 4); format: biochemical; conditions: read-out: Inhibition of Carbonic anhydrase-1 IC50
Method: as §1, §2, §3

[3] = test system: HeLa-MaTu-ADR, multidrug-resistant human cervical carcinoma cells; experiment: Proliferation assay, HeLa-MaTu-ADR (Method 3); format: cell-based; conditions: 4 days, crystal violet, read-out: Inhibition of HeLa-MaTu-ADR cell proliferation IC50
Method: (§4) After 24 hours, the cells of one plate (zero-point plate) were stained with crystal violet (see below), while the medium of the other plates was replaced by fresh culture medium (200 μl), to which the test substances were added in various concentrations (0 μM, as well as in the range of 0.001-10 μM; the final concentration of the solvent dimethyl sulfoxide was 0.5%). The cells were incubated for 4 days in the presence of test substances. Cell proliferation was determined by staining the cells with crystal violet: the cells were fixed by adding 20 μl/measuring point of an 11% glutaric aldehyde solution for 15 minutes at room temperature. After three washing cycles of the fixed cells with water, the plates were dried at room temperature. The cells were stained by adding 100 μl/measuring point of a 0.1% crystal violet solution (pH 3.0). After three washing cycles of the stained cells with water, the plates were dried at room temperature. The dye was dissolved by adding 100 μl/measuring point of a 10% acetic acid solution. The extinction was determined by photometry at a wavelength of 595 nm. The change of cell number, in percent, was calculated by normalization of the measured values to the extinction values of the zero-point plate (=0%) and the extinction of the untreated (0 μm) cells (=100%).

[4] = test system: HeLa, human cervical tumour cells; experiment: Proliferation assay, HeLa (Method 3); format: cell-based; conditions: 4 days, crystal violet, read-out: Inhibition of HeLa cell proliferation IC50
Summary of the method: (§5)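 Following a 24 h preculture, medium was replaced with compound-containing medium (0.001–10 μM; final DMSO 0.5%) and cells were incubated 4 days. Fixed cells were stained with crystal violet, the dye solubilized, and extinction at 595 nm was measured. Percent change was calculated relative to the zero-point and untreated controls.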

[5] = test system: B16F10, mouse melanoma cells; experiment: Proliferation assay, B16F10 (Method 3); format: cell-based; conditions: B16F10, 4 days, crystal violet, read-out: Inhibition of B16F10 cell proliferation IC50
Method: as §4

[6] = test system: NCI-H460, human non-small cell lung carcinoma cells; experiment: Proliferation assay, NCI-H460 (Method 3); format: cell-based; conditions: NCI-H460, 4 days, crystal violet, read-out: Inhibition of H460 cell proliferation IC50
Method: as §4

[7] = test system: Caco-2, human colorectal carcinoma cells; experiment: Proliferation assay, Caco-2 (Method 3); format: cell-based; conditions: Caco-2, 4 days, crystal violet, read-out: Inhibition of Caco-2 cell proliferation IC50
Method: as §4

[8] = test system: DU 145, hormone-independent human prostate carcinoma cells; experiment: Proliferation assay, DU 145 (Method 3); format: cell-based; conditions: DU145, 4 days, crystal violet, read-out: Inhibition of DU145 cell proliferation IC50
Method: as §4

CDK9/CycT1 [9] = target: T1, CDK9/CycT1 (Homo sapiens (Human), UniProt P50750); experiment: CDK9/CycT1 kinase assay (Method 1a); format: biochemical; conditions: for Selectivity CDK9/CDK2: derived from Methods 1a. and 2.
[10] = test system: MOLM-13 human acute myeloid leukemia cells; experiment: Proliferation assay, MOLM-13 (Cell Titre-Glo, Method 3); format: cell-based; conditions: MOLM-13, 72-hour exposure, read-out: Inhibition of MOLM-13 cell proliferation IC50
Method: Non-adherent MOLM-13 human acute myeloid leukemia cells (DSMZ ACC 554) were seeded at a density of 5,000 cells/well in a 96-well multititer plate in 100 μL of growth medium supplemented 10% fetal calf serum. After 24 hours, cell viability of one plate (zero-point plate) was determined with the Cell Titre-Glo Luminescent Cell Viability Assay (Promega), while 50 μL of test compound containing medium was added to the wells of the other plates (final concentrations in the range of 0.001-10 μM and DMSO controls; the final concentration of the solvent dimethyl sulfoxide was 0.5%). Cell viability was assessed after 72-hour exposure with the Cell Titre-Glo Luminescent Cell Viability Assay (Promega).

[11] = test system: A2780, human ovarian carcinoma cells; experiment: Proliferation assay, A2780 (Method 3); format: cell-based; conditions: A2780, 4 days, crystal violet; read-out: Inhibition of A2780 cell proliferation IC50
Summary of the method: as §5

[12] = In vitro metabolic stability in rat hepatocytes (Method 5); format: in vitro ADME, Han Wistar rat; conditions: 1 μM test compound
Method: 5. Investigation of In Vitro Metabolic Stability in Rat Hepatocytes
Hepatocytes from Han Wistar rats were isolated via a 2-step perfusion method. After perfusion, the liver was carefully removed from the rat: the liver capsule was opened and the hepatocytes were gently shaken out into a Petri dish with ice-cold Williams medium E (purchased from Sigma Aldrich Life Science, St Louis, Mo.). The resulting cell suspension was filtered through sterile gaze in 50 ml falcon tubes and centrifuged at 50×g for 3 min at room temperature. The cell pellet was resuspended in 30 ml WME and centrifuged through a Percoll® gradient for 2 times at 100×g. The hepatocytes were washed again with Williams' medium E (WMA) and resuspended in medium containing 5% Fetal calf serum (FCS, purchased from Invitrogen, Auckland, NZ). Cell viability was determined by trypan blue exclusion.
For the metabolic stability assay liver cells were distributed in WME containing 5% FCS to glass vials at a density of 1.0×10^6 vital cells/ml. The test compound was added to a final concentration of 1 μM. During incubation, the hepatocyte suspensions were continuously shaken and aliquots were taken at 2, 8, 16, 30, 45 and 90 min, to which equal volumes of cold acetonitrile were immediately added. Samples were frozen at −20° C. over night, after subsequently centrifuged for 15 minutes at 3000 rpm and the supernatant was analyzed with an Agilent 1200 HPLC-system with LCMS/MS detection.
The half-life of a test compound was determined from the concentration-time plot. From the half-life the intrinsic clearances were calculated. Together with the additional parameters liver blood flow, amount of liver cells in vivo and in vitro.

CDK9/CycT1 [13] = target: T1, CDK9/CycT1; experiment: CDK9/CycT1 high ATP kinase assay (Method 1b); format: biochemical; conditions: 2 mM ATP
Method: 1b. CDK9/CycT1 High ATP Kinase Assay
CDK9/CycT1-inhibitory activity of compounds of the present invention at a high ATP concentration after preincubation of enzyme and test compounds was quantified employing the CDK9/CycT1 TR-FRET assay as described in the following paragraphs.
Recombinant full-length His-tagged human CDK9 and CycT1, expressed in insect cells and purified by Ni-NTA affinity chromatography, were purchase from Invitrogen (Cat. No PV4131). As substrate for the kinase reaction biotinylated peptide biotin-Ttds-[…] (C-terminus in amid form) was used which can be purchased e.g. form the company JERINI peptide technologies (Berlin, Germany).
For the assay 50 nl of a 100 fold concentrated solution of the test compound in DMSO was pipetted into a black low volume 384 well microtiter plate (Greiner Bio-One, Frickenhausen, Germany), 2 μl of a solution of CDK9/CycT1 in aqueous assay buffer [50 mM Tris/HCl pH 8.0, 10 mM MgCl2, 1.0 mM dithiothreitol, 0.1 mM sodium ortho-vanadate, 0.01% (v/v) Nonidet-P40 (Sigma)] were added and the mixture was incubated for 15 min at 22° C. to allow pre-binding of the test compounds to the enzyme before the start of the kinase reaction. […] The concentration of CDK9/CycT1 was adjusted depending of the activity of the enzyme lot and was chosen appropriate to have the assay in the linear range, typical concentrations were in the range of 0.5 μg/ml.
The resulting mixture was incubated 1 h at 22° C. to allow the formation of complex between the phosphorylated biotinylated peptide and the detection reagents. Subsequently the amount of phosphorylated substrate was evaluated by measurement of the resonance energy transfer from the Eu-chelate to the streptavidine-XL. Therefore, the fluorescence emissions at 620 nm and 665 nm after excitation at 350 nm was measured in a HTRF reader, e.g. a Rubystar (BMG Labtechnologies, Offenburg, Germany) or a Viewlux (Perkin-Elmer). The ratio of the emissions at 665 nm and at 622 nm was taken as the measure for the amount of phosphorylated substrate.

T1 sequence (P50750 whole entry): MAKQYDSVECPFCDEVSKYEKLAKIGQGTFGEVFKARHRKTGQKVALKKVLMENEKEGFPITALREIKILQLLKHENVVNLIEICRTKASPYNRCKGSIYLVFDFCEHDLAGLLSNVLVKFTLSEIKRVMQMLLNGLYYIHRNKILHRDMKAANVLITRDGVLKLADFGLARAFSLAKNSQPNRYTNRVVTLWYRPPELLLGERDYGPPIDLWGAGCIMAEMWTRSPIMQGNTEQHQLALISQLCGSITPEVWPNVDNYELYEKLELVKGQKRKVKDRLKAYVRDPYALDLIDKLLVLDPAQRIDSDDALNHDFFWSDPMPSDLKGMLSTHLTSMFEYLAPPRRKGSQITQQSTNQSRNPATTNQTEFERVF
T1 sequence (O60563 whole entry partner): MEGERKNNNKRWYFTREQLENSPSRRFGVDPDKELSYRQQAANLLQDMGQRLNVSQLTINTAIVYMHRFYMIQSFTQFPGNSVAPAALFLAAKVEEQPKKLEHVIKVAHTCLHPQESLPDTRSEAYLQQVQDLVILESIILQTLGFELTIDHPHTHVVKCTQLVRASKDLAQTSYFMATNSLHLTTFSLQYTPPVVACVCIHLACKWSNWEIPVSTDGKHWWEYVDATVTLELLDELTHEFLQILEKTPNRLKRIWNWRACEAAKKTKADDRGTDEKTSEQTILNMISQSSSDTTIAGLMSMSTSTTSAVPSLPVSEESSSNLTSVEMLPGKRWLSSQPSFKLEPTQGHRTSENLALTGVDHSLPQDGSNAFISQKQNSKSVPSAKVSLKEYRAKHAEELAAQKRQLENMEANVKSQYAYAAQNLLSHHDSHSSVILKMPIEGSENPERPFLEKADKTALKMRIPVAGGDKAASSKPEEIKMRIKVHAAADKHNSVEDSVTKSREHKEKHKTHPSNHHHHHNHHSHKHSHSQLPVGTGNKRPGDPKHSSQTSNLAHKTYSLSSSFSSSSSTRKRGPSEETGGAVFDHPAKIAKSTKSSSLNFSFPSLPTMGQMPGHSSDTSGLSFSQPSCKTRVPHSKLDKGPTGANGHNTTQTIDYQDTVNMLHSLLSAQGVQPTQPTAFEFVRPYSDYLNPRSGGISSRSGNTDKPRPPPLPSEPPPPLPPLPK
Chain of human carbonic anhydrase-1 (P00915 whole entry): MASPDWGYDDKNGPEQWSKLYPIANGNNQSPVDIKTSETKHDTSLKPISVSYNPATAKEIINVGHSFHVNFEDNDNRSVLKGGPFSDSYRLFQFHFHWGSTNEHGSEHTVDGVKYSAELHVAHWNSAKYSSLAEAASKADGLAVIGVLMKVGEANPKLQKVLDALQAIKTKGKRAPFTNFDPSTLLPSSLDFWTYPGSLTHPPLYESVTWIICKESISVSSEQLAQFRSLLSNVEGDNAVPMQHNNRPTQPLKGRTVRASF

| Structure (SMILES) | IC50 (CDK2/CycE) | IC50 ([4]; Homo sapiens, 96 h) | Selectivity CDK9/CDK2 (CDK9/CycT1 [9]) | IC50 [11] | maximal calculated oral bioavailability (Fmax) based on stability data in rat Hepatocytes [12] | IC50 [10] | IC50 [4] | further results |
| --- | --- | --- | --- | --- | --- | --- | --- | --- |
| CS(=O)(Cc1cc(Br)cc(Nc2ncc(F)c(-c3ccc(F)cc3F)n2)c1)=NC#N (racemic) [Example 18, (rac)-[(3-Bromo-5-{[4-(2,4-difluorophenyl)-5-fluoropyrimidin-2-yl]amino}benzyl)(methyl)oxido-λ^6-sulfanylidene]cyanamide] | 470 nM |  |  |  |  |  |  | IC50 [1]: > 10000 nM; IC50 [2]: > 10000 nM |
| COc1cc(CS(C)(=O)=NC#N)cc(Nc2ncc(F)c(-c3ccc(F)cc3F)n2)c1 (racemic) [Example 20, (rac)-[(3-{[4-(2,4-Difluorophenyl)-5-fluoropyrimidin-2-yl]amino}-5-methoxybenzyl)(methyl)oxido-λ^6-sulfanylidene]cyanamide] | 230 nM | 320 nM |  |  |  |  |  | IC50 ([3]; Homo sapiens, 96 h): 330 nM; IC50 ([5]; Mus musculus, B16-F10, 96 h): 321 nM; IC50 ([6]; Homo sapiens, NCI-H460, 96 h): 384 nM; IC50 ([7]; Homo sapiens, Caco-2, 96 h): 344 nM; IC50 ([8]; Homo sapiens, DU-145, 96 h): 340 nM |
| CS(=N)(=O)Cc1cc(Nc2ncc(F)c(-c3ccc(F)cc3F)n2)cc(C(F)(F)F)c1 (single isomer, unassigned) [Example 5, 4-(2,4-Difluorophenyl)-5-fluoro-N-{3-[(S-methylsulfonimidoyl)methyl]-5-(trifluoromethyl)phenyl}pyrimidin-2-amine] |  | 840 nM | 72 | 95 nM | 77% |  |  | IC50 ([10]; Homo sapiens, MOLM-13, 72 h): 316 nM |

Second part, led by results:

| IC50 (CDK2/CycE) | IC50 ([4]; Homo sapiens, 96 h) | Selectivity CDK9/CDK2 (CDK9/CycT1 [9]) | IC50 [11] | maximal calculated oral bioavailability (Fmax) based on stability data in rat Hepatocytes [12] | IC50 [10] | IC50 [4] | Structure (SMILES) | further results |
| --- | --- | --- | --- | --- | --- | --- | --- | --- |
|  |  | 50 | 300 nM | 71% | 374 nM | 950 nM | CS(=N)(=O)Cc1cc(Nc2ncc(F)c(-c3ccc(F)cc3F)n2)cc(C(F)(F)F)c1 (single isomer, unassigned) [Example 6, 4-(2,4-Difluorophenyl)-5-fluoro-N-{3-[(S-methylsulfonimidoyl)methyl]-5-(trifluoromethyl)phenyl}pyrimidin-2-amine] |  |
|  |  |  | 99 nM | 90% | 39 nM | 172 nM | CS(=O)(Cc1cc(Nc2ncc(F)c(-c3ccc(F)cc3F)n2)cc(S(F)(F)(F)(F)F)c1)=NC(N)=O (single isomer, unassigned) [Example 34, 1-{[3-{[4-(2,4-Difluorophenyl)-5-fluoropyrimidin-2-yl]amino}-5-(pentafluoro-λ^6-sulfanyl)benzyl](methyl)oxido-λ^6-sulfanylidene}urea] | IC50 [3]: 134 nM; IC50 (CDK9/CycT1 [9]; 10 μM ATP): 4 nM; IC50 [5]: 323 nM; IC50 (CDK9/CycT1 [13]): 11 nM; IC50 [6]: 317 nM; IC50 [7]: 202 nM; IC50 [8]: 142 nM |
